Source: US20120316105A1, “Polymyxin Derivates Useful As Antibacterial Agents” (priority 2011, published 2012)
Numbered stars: 1 amine (or outer) side, 2 acyl side, 3 side chain; on linkers, the order of the positions; unused ones are H or OH. Bridge positions count the residues as written; N and C are the ends. Square brackets hold non-standard residues; d marks the D form. Peptide text beside a SMILES is read from it. * marks the point of attachment. X4 = N#Cc1cccc(-c2cc(C(=O)*)ccc2C#N)c1; X9 = N#Cc1ccc(-c2cc(C(=O)*)ccc2F)nc1; X30 = O=C(c1ccc(Cl)c(-c2ccccc2)c1)*; X37 = COc1cc(C(=O)*)cc(-c2ccccc2)n1; X20 = Cc1ccc(-c2cccc(C(=O)*)c2)cc1; X32 = N#Cc1cc(C(=O)*)ccc1-c1ccccc1; X8 = O=C(c1cc(-c2ccccc2)ccc1F)*; X36 = c1ccc(-c2cccc(N*)c2)cc1; X14 = CC(C)c1cccc(C(=O)*)c1; Dab = NCC[C@H](N)C(=O)O; Dap = NC[C@H](N)C(=O)O; CO = O=C([*:1])[*:2]

Assays:
[1] = system: AB-1649, polymyxin-resistant clinical isolate of Acinetobacter baumannii; type: cell-based; details: AB-1649, polymyxin-resistant clinical isolate of
Method: (§1) Minimum bactericidal concentration (MBC, mg/L), minimum inhibitory concentration (MIC, mg/L), and human renal proximal tubule epithelial cell line cytotoxicity concentration 50% (hRPTEC, TC50, micromolar) for compounds of Formula I are listed in Table 2. The compounds of Formula I were tested as the corresponding trifluoroacetate salt except for Example 1 which was tested as the sulfate salt. For Table 2 below: PMB=polymyxin B as the sulfate salt (Bedford Laboratories, pharmaceutical grade); PMB1=polymyxin B1 as the trifluoroacetate salt; Nona=polymyxin B nonapeptide as the trifluoroacetate salt. PMB1 and Nona were prepared using the solid phase methodology described in the experimental section herein.
(§2) The in vitro antibacterial activity of compounds of Formula I was evaluated by MIC testing according to Clinical and Laboratory Standards Institute (CLSI). See: Clinical and Laboratory Standards Institute. Methods for Dilution Antimicrobial Susceptibility Tests for Bacteria that Grow Aerobically; Approved Standard-Eighth Edition. CLSI document M7-A8 [ISBN 1-56238-689-1]. Clinical and Laboratory Standards Institute, 940 West Valley Road, Suite 1400, Wayne, Pa. 19087-1898 USA, 2006; also Clinical and Laboratory Standards Institute. Performance Standards for Antimicrobial Susceptibility Testing; Twentieth Informational Supplement. CLSI document M100-S20 [ISBN 1-56238-716-2]. Clinical and Laboratory Standards Institute. Methods for Determining Bactericidal Activity of Antimicrobial Agents; Approved Guideline. CLSI document M26-A (ISBN 1-56238-384-1). CLSI, 940 West Valley Road, Suite 1400, Wayne, Pa. 19087-1898 USA, 1999.
AB-1649 is a polymyxin-resistant clinical isolate of Acinetobacter baumannii obtained from JMI labs (www.jmilabs.com);

[2] = Cytotoxicity assay (LDH release), hRPTEC; type: cell-based, human; details: human
Method: as §1
Human Renal Proximal Tubule Epithelial cells (hRPTEC) were obtained from Lonza (Walkersville, Md., USA) and cultured in REGM (Renal Epithelial Cell Basal Medium supplemented with human epithelial growth factor, hydrocortisone, epinephrine, insulin, triiodothyronine, transferrin, gentamycin/amphotericin-B, and fetal bovine serum). The hRPTEC cells were seeded into 96-well plates and incubated at 37° C. in 5% CO2. Following a growth period of 72 hours, cells were treated with compounds at 100, 67, 44, 30, 20 and 13 micromolar for 24 hours at 37° C. in 5% CO2. The cell supernatant was then harvested for determination of LDH (lactate dehydrogenase) production. The Cytotoxicity Detection Kit from Roche was used for the measurement of LDH activity released from damaged cells. The Toxic Concentration 50% (TC50, micromolar) values were determined for each compound and compared to the control compounds (polymyxin B was used as a positive control and polymyxin B nonapepetide was used as negative control).

[3] = system: PA-1646, polymyxin-resistant clinical isolate of Pseudomonas aeruginosa; type: cell-based; details: PA-1646, polymyxin-resistant clinical isolate of
Method: as §1, §2
PA-1646 is a polymyxin-resistant clinical isolate of Pseudomonas aeruginosa obtained from JMI labs (www.jmilabs.com);

[4] = system: Pseudomonas aeruginosa strain PA01; type: cell-based; details: strain
Method: as §1, §2
(§3) The MIC determination is a standard laboratory method for evaluating the antibacterial activity of a compound. The MIC represents the lowest drug concentration that inhibits visible growth of bacteria following overnight incubation. […] Typically, the drug concentration range is broken down into 2-fold increments (e.g. 0.06 mg/L, 0.12 mg/L, 0.25 mg/L, 0.50 mg/L, 1.0 mg/L, etc.) and the various drug concentrations are all individually incubated overnight with approximately the same number of bacteria. The MIC is then determined by visually inspecting the drug effect at each concentration, and identifying the lowest drug concentration that has inhibited bacterial growth as compared to the drug free control. Typically, bacteria continue to grow at drug concentrations lower than the MIC and don't grow at concentrations at and above the MIC.
(§4) The MIC values described in Table 2 below were derived from assays wherein each test compound was evaluated in duplicate. In cases where the duplicate values varied by 0-2-fold, the lower of the two values was reported below. Generally speaking, if the duplicate values varied by more than 2-fold, the assay was considered non-valid and was repeated until the variation between duplicate runs was ≦2-fold. In line with the CLSI guidelines referred to above, both control organisms and reference compounds were utilized in each MIC assay to provide proper quality control. MIC values generated with these control organisms and reference compounds were required to fall within a defined range for the assay to be considered valid and be included herein. Those skilled in the art will recognize that MIC values can and do vary from experiment to experiment. Generally speaking, it should be recognized that MIC values often vary +/−2-fold from experiment to experiment. While a single MIC is reported for each compound and each microorganism, the reader should not conclude that each compound was only tested once. Several of the compounds were subjected to multiple tests. The data reported in Table 2 is reflective of the compounds relative activity and different MICs may have been generated on these occasions in line with the guidelines described above.
(§5) The following bacterial strains were used in these MIC determinations: […]

[5] = system: AB-3167, clinical isolate of Acinetobacter baumannii; type: cell-based; details: AB-3167, clinical isolate of
Method: as §1, §2, §3, §4, §5

[6] = system: PA-1646, polymyxin-resistant clinical isolate of Pseudomonas aeruginosa; type: cell-based; details: PA-1646, polymyxin-resistant clinical isolate of; remark: listed apart in the source
Method: as §1, §2, §3, §4, §5

[7] = system: AB-1649, polymyxin-resistant clinical isolate of Acinetobacter baumannii; type: cell-based; details: AB-1649, polymyxin-resistant clinical isolate of; remark: listed apart in the source
Method: as §1, §2, §3, §4, §5

[8] = system: EC-1, mouse virulent strain of Escherichia coli; type: cell-based; details: E. coli EC-1; overnight incubation, lower of duplicate values; trifluoroacetate salt (Example 1 and PMB sulfate)
Method: as §1, §2, §3, §4
The following bacterial strains were used in these MIC determinations:
EC-1 is a mouse virulent strain of Escherichia coli.

Row | Compound | AB-1649 MBC [1] [µg/mL] | CC50 at 24 h [2] [µM] | PA-1646 MBC [3] [µg/mL] | PA01 MIC [4] [µg/mL] | AB-3167 MIC [5] [µg/mL] | PA-1646 MIC [6] [µg/mL] | AB-1649 MIC [7] [µg/mL] | EC-1 MIC [8] [µg/mL]
1 | CC(C)C[C@@H]1NC(=O)[C@@H](Cc2ccccc2)NC(=O)[C@H](CCN)NC(=O)[C@@H](NC(=O)[C@H](CN)NC(=O)[C@@H](NC(=O)[C@H](CCN)NC(=O)c2cc(-c3ccccc3)ccc2F)[C@@H](C)O)CCNC(=O)[C@H]([C@@H](C)O)NC(=O)[C@H](CCN)NC(=O)[C@H](CCN)NC1=O [Example 34] (X8-[Dab]T[Dap][Dab][Dab][dF]L[Dab][Dab]T; lactam 4-C) | 16 | 28 | 8 | 0.5 | 0.25 | 2 | 16 | 0.125
2 | COc1cc(C(=O)N[C@@H](CCN)C(=O)N[C@H](C(=O)N[C@@H](CN)C(=O)N[C@H]2CCNC(=O)[C@H]([C@@H](C)O)NC(=O)[C@H](CCN)NC(=O)[C@H](CCN)NC(=O)[C@H](CC(C)C)NC(=O)[C@@H](Cc3ccccc3)NC(=O)[C@H](CCN)NC2=O)[C@@H](C)O)cc(-c2ccccc2)n1 [Example 35] (X37-[Dab]T[Dap][Dab][Dab][dF]L[Dab][Dab]T; lactam 4-C) | 4 | 24 | 1 | 0.5 | 0.5 | 1 | 4 | 0.25
3 | Cc1ccc(-c2cccc(C(=O)N[C@@H](CCN)C(=O)N[C@H](C(=O)N[C@@H](CN)C(=O)N[C@H]3CCNC(=O)[C@H]([C@@H](C)O)NC(=O)[C@H](CCN)NC(=O)[C@H](CCN)NC(=O)[C@H](CC(C)C)NC(=O)[C@@H](Cc4ccccc4)NC(=O)[C@H](CCN)NC3=O)[C@@H](C)O)c2)cc1 [Example 37] (X20-[Dab]T[Dap][Dab][Dab][dF]L[Dab][Dab]T; lactam 4-C) | 4 | 18 | 4 | 2 | 1 | 2 | 4 | 0.5
4 | CC(C)C[C@@H]1NC(=O)[C@@H](Cc2ccccc2)NC(=O)[C@H](CCN)NC(=O)[C@@H](NC(=O)[C@H](CN)NC(=O)[C@@H](NC(=O)[C@H](CCN)NC(=O)c2ccc(Cl)c(-c3ccccc3)c2)[C@@H](C)O)CCNC(=O)[C@H]([C@@H](C)O)NC(=O)[C@H](CCN)NC(=O)[C@H](CCN)NC1=O [Example 10] (X30-[Dab]T[Dap][Dab][Dab][dF]L[Dab][Dab]T; lactam 4-C) | 1 | 14 | 1 | 1 | 0.5 | 0.5 | 1 | 0.25
5 | CC(C)C[C@@H]1NC(=O)[C@@H](Cc2ccccc2)NC(=O)[C@H](CCN)NC(=O)[C@@H](NC(=O)[C@H](CN)NC(=O)[C@@H](NC(=O)[C@H](CCN)NC(=O)c2ccc(C#N)c(-c3cccc(C#N)c3)c2)[C@@H](C)O)CCNC(=O)[C@H]([C@@H](C)O)NC(=O)[C@H](CCN)NC(=O)[C@H](CCN)NC1=O [Example 14] (X4-[Dab]T[Dap][Dab][Dab][dF]L[Dab][Dab]T; lactam 4-C) | 2 | 43 | 16 | 0.5 | 0.5 | 4 | 2 | 0.5
6 | CC(C)C[C@@H]1NC(=O)[C@@H](Cc2ccccc2)NC(=O)[C@H](CCN)NC(=O)[C@@H](NC(=O)[C@H](CN)NC(=O)[C@@H](NC(=O)[C@H](CCN)NC(=O)c2cccc(C(C)C)c2)[C@@H](C)O)CCNC(=O)[C@H]([C@@H](C)O)NC(=O)[C@H](CCN)NC(=O)[C@H](CCN)NC1=O [Example 25] (X14-[Dab]T[Dap][Dab][Dab][dF]L[Dab][Dab]T; lactam 4-C) | 4 | 88 | 16 | 1 | 0.25 | 4 | 4 | 0.25
7 | CC(C)C[C@@H]1NC(=O)[C@@H](Cc2ccccc2)NC(=O)[C@H](CCN)NC(=O)[C@@H](NC(=O)[C@H](CN)NC(=O)[C@@H](NC(=O)[C@H](CCN)NC(=O)c2ccc(F)c(-c3ccc(C#N)cn3)c2)[C@@H](C)O)CCNC(=O)[C@H]([C@@H](C)O)NC(=O)[C@H](CCN)NC(=O)[C@H](CCN)NC1=O [Example 24] (X9-[Dab]T[Dap][Dab][Dab][dF]L[Dab][Dab]T; lactam 4-C) | 8 | > 100 | 16 | 1 | 0.5 | 4 | 4 | 0.25
8 | CC(C)C[C@@H]1NC(=O)[C@@H](Cc2ccccc2)NC(=O)[C@H](CCN)NC(=O)[C@@H](NC(=O)[C@H](CN)NC(=O)[C@@H](NC(=O)[C@H](CCN)NC(=O)c2ccc(-c3ccccc3)c(C#N)c2)[C@@H](C)O)CCNC(=O)[C@H]([C@@H](C)O)NC(=O)[C@H](CCN)NC(=O)[C@H](CCN)NC1=O [Example 8] (X32-[Dab]T[Dap][Dab][Dab][dF]L[Dab][Dab]T; lactam 4-C) | 1 | 32 | 4 | 1 | 0.25 | 2 | 1 | 0.5
9 | CC(C)C[C@@H]1NC(=O)[C@@H](Cc2ccccc2)NC(=O)[C@H](CCN)NC(=O)[C@@H](NC(=O)[C@H](CN)NC(=O)[C@@H](NC(=O)[C@H](CCN)NC(=O)Nc2cccc(-c3ccccc3)c2)[C@@H](C)O)CCNC(=O)[C@H]([C@@H](C)O)NC(=O)[C@H](CCN)NC(=O)[C@H](CCN)NC1=O [Example 40] ({X36-CO}-[Dab]T[Dap][Dab][Dab][dF]L[Dab][Dab]T; lactam 4-C) | 4 | 15 | 1 | 0.5 | 0.25 | 1 | 4 | 0.25
